Measured values published in US7537765B2, “Inhibition of HIV-1 replication by disruption of the processing of the viral capsid-spacer peptide 1 protein” (priority 2003, dated 2009).
Where two headings read alike, the source gives them in different places.

Legend:
[1] = tested on: drug resistant HIV-1 isolates; assay: Drug resistant HIV-1 isolates in fresh PBMC, p24 endpoint; type: cell-based; conditions: read-out: IC50
Description: A robust virus inhibition assay was used to evaluate the anti-viral activity of DSB against primary HIV-1 isolates propagated in PMBC. Briefly, serial dilutions of DSB were made in medium into 96-well tissue culture plates. 25-250 TCID50 of virus and 5×10^5 PHA-stimulated PBMCs were added to each well. On days 1, 3 and 5 post-infection, media was removed from each well and replaced with fresh media containing DSB at the appropriate concentration.
(§1) The activity of DSB was tested against a panel of HIV-1 isolates resistant to approved drugs. These viruses were obtained from the NIH AIDS Research and Reference Reagent Program. Assays were performed using virus propagated in PBMCs with a p24 endpoint (above), or using cell line targets (MT-2 cells) and a cell killing endpoint. The MT-2 assay format was as follows. Serial dilutions of DSB, or each approved drug, were prepared in 96 well plates. To each sample well was added media containing MT-2 cells at 3×10^5 cells/mL and virus inoculum at a concentration necessary to result in 80% killing of the cell targets at 5 days post-infection (PI). On day 5 post-infection, virus-induced cell killing was determined by the XTT method and the inhibitory activity of the compound was determined.

HIV-1IIIB = assay: Virus production and Gag processing (western blot) in chronically infected H9/HIV-1IIIB cells; type: cell-based
Description: FIG. 2. […] Gag proteins were visualized using HIV-Ig (HIV-1) or monkey anti-SIVmac251 serum (HIV-2 and SIV; NIH AIDS Research and Reference Reagent Program).
In order to better define DSB's mechanism of action, a detailed examination was undertaken of the virus produced from HIV-1-infected cell lines treated with DSB. Briefly, H9 cells chronically infected with the HIV-1IIIB isolate were treated with DSB at 1 μg/mL for a period of 48 hrs. Indinavir was used as a control. At the 48 hr time-point, spent media was removed and fresh media containing compound was added. At 24, 48 and 72 hrs post fresh compound addition, both cells and supernatant were recovered for analysis. The level of virus in the culture supernatant was determined and western blots were used to characterize viral protein production in both cell-associated and cell-free virus. […] This defect took the form of an additional band in the western blots corresponding to p25 (FIG. 2). This p25 band results from the incomplete processing of the capsid CA-SP1 precursor. […] As discussed above, mutations at the p25 to p24 cleavage site that prevent processing are associated with defects in viral maturation and infectivity (Wiegers K. et al., J. Virol. 72:2846-54 (1998)).

[2] = tested on: HIV-1 isolates selected for resistance to DSB; assay: Virus replication assay in H9 cells (p24 ELISA), DSB-resistant and parental viruses; type: cell-based
Description: Virus stocks derived as described above were further analyzed both phenotypically and genotypically to characterize the nature of their drug-resistance. The resistance of the viruses to 3-O-(3′,3′-dimethylsuccinyl)-betulinic acid (DSB) was determined in virus replication assays. Briefly, the virus stocks were first titered in H9 cells by quantitating the levels of p24 (by ELISA) in cultures 8 days after infection with serial 4-fold dilutions of virus. Virus input was then normalized for a second assay in which each virus is cultured for 8 days in the presence of serial 4-fold dilutions of drug. The IC50 for each virus was determined as the dilution of drug that reduced the p24 endpoint level by 50% as compared to the no-drug control. […] In a subsequent series of experiments, the A364V mutation was engineered into the HIV-1 NL4-3 proviral DNA, which was subsequently transfected into HeLa cells. Resulting virus was collected and used to test the activity of DSB in a viral replication assay, as described above.

[3] = tested on: NNRTI-resistant HIV-1 isolates; assay: NNRTI-resistant HIV-1 isolates in MT-2 cells, cell viability (XTT) endpoint; type: cell-based; conditions: X4, MT-2 cells, read-out: IC50
Description: as §1

HIV-1 protease = HIV-1 protease (Human immunodeficiency virus type 1 group M subtype B, UniProt P12497); assay: Cell-free fluorometric protease assay, synthetic peptide substrate; type: biochemical; design: DSB had no effect on HIV-1 protease function using a cell-free fluorometric assay; conditions: concentrations up to 50 μg/mL
Description: It was previously determined that DSB had no effect on HIV-1 protease function using a cell-free fluorometric assay that characterized enzyme activity by following the cleavage of a synthetic peptide substrate. […] As a result of the observation that DSB blocks virus replication at a late step, studies were also performed using a recombinant form of the Gag protein, which is a more relevant system than the synthetic peptide substrate used in the initial assays.

[4] = tested on: NL4-3 A366V/G357S double mutant; assay: Virus replication assay of re-engineered NL4-3 mutants in Jurkat T cells (reverse transcriptase activity); type: cell-based, HIV-1
Description: In order to more extensively map the viral genetic determinants for DSB resistance, additional experiments were performed to select for viruses in vitro that are drug resistant. Multiple parallel cultures of Jurkat T cells (5×10^5 each) were transfected with the proviral DNA clone pNL4-3 in the presence or absence of 10-50 ng/ml DSB. The cells were passaged every two days, and fresh drug was added at each passage. Virus replication was monitored by measuring reverse transcriptase activity in culture supernatants. Virus was isolated from culture supernatants harvested at selected timepoints, and genomic DNA was amplified by RT-PCR using primers that spanned the coding region between the N-terminus of CA and the N-terminus of RT. The amplified product was then sequenced using the same set of primers.
In one experiment, an A366V mutation was identified in the SP1 region of NL4-3 virus cultured in the presence of DSB (note: numbering is relative to the Gag polyprotein). Upon further passaging, a double mutant was identified that contained a G357S mutation in CA as well as the A366V mutation in SP1. The A366V mutation was identified previously in experiments selecting for resistant variants of the RF isolate. […] Since serine is present at this position in isolates (such as RF) that are sensitive to DSB, the CA G357S mutation alone is not sufficient to confer resistance to DSB. […]

C=C(C)[C@@H]1CC[C@]2(C(=O)O)CC[C@]3(C)[C@H](CC[C@@H]4[C@@]5(C)CC[C@H](OC(=O)CC(C)(C)C(=O)O)C(C)(C)[C@@H]5CC[C@]43C)[C@@H]12 [DSB, 3-O-(3′,3′-dimethylsuccinyl)betulinic acid]
IC50 ([1]; isolate 1, NRTI-resistant, K70R T215Y/F, R5/X4): 4.4 nM
IC50 ([1]; isolate 2, NRTI-resistant, K70R T215Y/F, R5/X4): 4.2 nM
IC50 ([1]; isolate 5, Protease-resistant, V82A, X4): 5.6 nM
IC50 ([1]; isolate 6, Protease-resistant, I84V, X4): 5.5 nM
IC50 ([1]; isolate 7, Protease-resistant, L10R/M46I/L63P/V82T/I84V, X4): 12.9 nM
Gag processing (p25 band in western blot) (HIV-1IIIB; 1 μg/mL, cell-associated and cell-free virus): defect in Gag processing
amount of virus produced (HIV-1IIIB; 1 μg/mL, chronically infected H9 cells): did not cause a significant reduction in the amount of virus produced
effect on virus release (HIV-1IIIB; a variety of experimental systems): does not have a significant effect on virus release
IC50 ([2]; NL4-3 with engineered A364V mutation (DSB-resistant virus)): 100 nM
IC50 ([2]; two independently derived DSB-selected virus stocks): > 2000 nM
IC50 ([2]; virus cultured in parallel in the absence of drug): 20 nM
IC50 ([2]; wild-type NL4-3): 10 nM
IC50 ([3]; isolate 3, NNRTI-resistant, Y181C): 1 nM
IC50 ([3]; isolate 4, NNRTI-resistant, K103N Y181C): 1.3 nM
effect on HIV-1 protease function (HIV-1 protease): no effect on protease function
virus replication [4]: replicated efficiently in the absence or presence of DSB
